Consider 31 molecules from patent US8394848B2, “Compounds that modulate intracellular calcium” (Calcimedica, Inc., priority 2008, dated 2013).

The assay deals with JR251 or RBL cells. Nature of the assay: Store-operated calcium entry, either JR251 or RBL cells, or both. Format: cell-based. An outline of the steps:
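Orai1/STIM1 stable cells: fluo-4-AM loaded, compound 30 min at RT in Ca2+-free HBSS, then CaCl2 added; IC50 from Peak-Basal FLIPR fluorescence. RBL-2H3 cells: compound 5 min, then thapsigargin (5.5× stock, 5.5 uM) 25 min, then calcium added; IC50 from Upslope (signal 7 s after calcium minus baseline).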

A value given as a limit tells only on which side of the number the result lay.

Usually IC50 stands for the concentration that inhibits the measured activity by half. As for `Cc1ccc(-c2csc(NC(=O)c3nc4ccc(F)cc4o3)c2C(=O)O)c(F)c1F` [4-(2,3-difluoro-4-methylphenyl)-2-(6-fluorobenzo[d]oxazole-2-carboxamido)thiophene-3-carboxylic acid], the IC50 is less than 10 µM.

Take `Cc1ccc(-c2csc(NC(=O)c3nc4cccc(F)c4o3)c2C(=O)O)c(F)c1F` [4-(2,3-difluoro-4-methylphenyl)-2-(7-fluorobenzo[d]oxazole-2-carboxamido)thiophene-3-carboxylic acid]: the IC50 is less than 10 µM.

Consider `Cc1ccc(-c2csc(NC(=O)c3cc4cccc(O)c4o3)c2C(=O)O)c(F)c1F` [4-(2,3-difluoro-4-methylphenyl)-2-(7-hydroxybenzofuran-2-carboxamido)thiophene-3-carboxylic acid], for which the IC50 is less than 10 µM.

In the case of `Cc1ccc(-c2csc(NC(=O)c3cn4ccsc4n3)c2C(=O)O)c(F)c1F` [4-(2,3-difluoro-4-methylphenyl)-2-(imidazo[2,1-b]thiazole-6-carboxamido)thiophene-3-carboxylic acid], the IC50 was less than 10 µM.

Regarding `Cc1ccc(-c2csc(NC(=O)c3cc4ccccn4n3)c2C(=O)O)c(F)c1F` [4-(2,3-difluoro-4-methylphenyl)-2-(pyrazolo[1,5-a]pyridine-2-carboxamido)thiophene-3-carboxylic acid], the IC50 is less than 10 µM.

Regarding `Cc1ccc(-c2csc(NC(=O)c3cnc4ccccc4n3)c2C(=O)O)c(F)c1F` [4-(2,3-difluoro-4-methylphenyl)-2-(quinoxaline-2-carboxamido)thiophene-3-carboxylic acid], the IC50 is less than 10 µM.

Regarding `Cc1ccc(-c2csc(NC(=O)c3cc4sccc4s3)c2C(=O)O)c(F)c1F` [4-(2,3-difluoro-4-methylphenyl)-2-(thieno[3,2-b]thiophene-2-carboxamido)thiophene-3-carboxylic acid], the IC50 was less than 10 µM.

Turning to `O=C(CCc1ccccc1)Nc1scc(-c2cc(F)c(Cl)cc2Cl)c1C(=O)O` [4-(2,4-dichloro-5-fluorophenyl)-2-(3-phenylpropanamido)thiophene-3-carboxylic acid], the IC50 is less than 10 µM.

Turning to `O=C(CSc1ccccc1)Nc1scc(-c2ccc(Cl)cc2Cl)c1C(=O)O` [4-(2,4-dichlorophenyl)-2-(2-(phenylthio)acetamido)thiophene-3-carboxylic acid], the half-inhibitory concentration (IC50) is less than 10 µM.

Take `O=C(CCc1ccccc1)Nc1scc(-c2ccc(Cl)cc2Cl)c1C(=O)O` [4-(2,4-dichlorophenyl)-2-(3-phenylpropanamido)thiophene-3-carboxylic acid]: the IC50 is less than 10 µM.

As to `O=C(CSc1ccccc1)Nc1scc(-c2ccccc2Br)c1C(=O)O` [4-(2-bromophenyl)-2-(2-(phenylthio)acetamido)thiophene-3-carboxylic acid], the concentration for half-maximal inhibition (IC50) was less than 10 µM.

Regarding `Cc1ccsc1C(=O)Nc1scc(-c2ccccc2Br)c1C(=O)O` [4-(2-bromophenyl)-2-(3-methylthiophene-2-carboxamido)thiophene-3-carboxylic acid], the IC50 is less than 10 µM.

In the case of `O=C(O)c1c(-c2ccccc2Br)csc1NC(=O)C1CC1` [4-(2-bromophenyl)-2-(cyclopropanecarboxamido)thiophene-3-carboxylic acid], the IC50 is less than 10 µM.

Take `O=C(Nc1scc(-c2ccccc2Br)c1C(=O)O)c1cccs1` [4-(2-bromophenyl)-2-(thiophene-2-carboxamido)thiophene-3-carboxylic acid]: the IC50 is less than 10 µM.

As for `COc1cccc(CC(=O)Nc2scc(-c3ccc(Cl)c(Cl)c3)c2C(=O)O)c1` [4-(3,4-dichlorophenyl)-2-(2-(3-methoxyphenyl)acetamido)thiophene-3-carboxylic acid], the IC50 is less than 10 µM.

In the case of `O=C(CCc1ccccc1)Nc1scc(-c2ccc(Cl)c(Cl)c2)c1C(=O)O` [4-(3,4-dichlorophenyl)-2-(3-phenylpropanamido)thiophene-3-carboxylic acid], the IC50 is less than 10 µM.

Take `O=C(Nc1scc(-c2ccc(Cl)c(Cl)c2)c1C(=O)O)c1ccsc1` [4-(3,4-dichlorophenyl)-2-(thiophene-3-carboxamido)thiophene-3-carboxylic acid]: the IC50 is less than 10 µM.

As for `Cc1ccc(-c2csc(NC(=O)c3sccc3C)c2C(=O)O)cc1C` [4-(3,4-dimethylphenyl)-2-(3-methylthiophene-2-carboxamido)thiophene-3-carboxylic acid], the concentration for half-maximal inhibition (IC50) was less than 10 µM.

As for `Cc1ccc(-c2csc(NC(=O)c3ccsc3)c2C(=O)O)cc1C` [4-(3,4-dimethylphenyl)-2-(thiophene-3-carboxamido)thiophene-3-carboxylic acid], the IC50 was less than 10 µM.

`Cc1ccsc1C(=O)Nc1scc(-c2cccc(Cl)c2)c1C(=O)O` [4-(3-chlorophenyl)-2-(3-methylthiophene-2-carboxamido)thiophene-3-carboxylic acid]: the IC50 was less than 10 µM.

As to `O=C(Nc1scc(-c2cccc(Cl)c2)c1C(=O)O)c1ccsc1` [4-(3-chlorophenyl)-2-(thiophene-3-carboxamido)thiophene-3-carboxylic acid], the IC50 was less than 10 µM.

Turning to `O=C(O)c1c(-c2ccc(Br)cc2)csc1NC(=O)C1CCc2ccccc2C1` (stereo not shown) [4-(4-bromophenyl)-2-(1,2,3,4-tetrahydronaphthalene-2-carboxamido)thiophene-3-carboxylic acid], the IC50 was less than 10 µM.

For the molecule `Cc1nn(C)c2sc(C(=O)Nc3scc(-c4ccc(Br)cc4)c3C(=O)O)cc12` [4-(4-bromophenyl)-2-(1,3-dimethyl-1H-thieno[2,3-c]pyrazole-5-carboxamido)thiophene-3-carboxylic acid], the IC50 was less than 10 µM.

As for `Cn1cnc(C(=O)Nc2scc(-c3ccc(Br)cc3)c2C(=O)O)c1` [4-(4-bromophenyl)-2-(1-methyl-1H-imidazole-4-carboxamido)thiophene-3-carboxylic acid], the half-maximal inhibitory concentration (IC50) is less than 10 µM.

As for `O=C(O)c1c(-c2ccc(Br)cc2)csc1NC(=O)C1Cc2ccccc2C1` [4-(4-bromophenyl)-2-(2,3-dihydro-1H-indene-2-carboxamido)thiophene-3-carboxylic acid], the IC50 is less than 10 µM.

Regarding `O=C(O)c1c(-c2ccc(Br)cc2)csc1NC(=O)C1Cc2ccccc2O1` (stereo not shown) [4-(4-bromophenyl)-2-(2,3-dihydrobenzofuran-2-carboxamido)thiophene-3-carboxylic acid], the IC50 was less than 10 µM.

On to `O=C(CSc1ccccc1)Nc1scc(-c2ccc(Br)cc2)c1C(=O)O` [4-(4-bromophenyl)-2-(2-(phenylthio)acetamido)thiophene-3-carboxylic acid], for which the IC50 was less than 10 µM.

In the case of `Cc1cc(C(=O)Nc2scc(-c3ccc(Br)cc3)c2C(=O)O)cc(O)n1` [4-(4-bromophenyl)-2-(2-hydroxy-6-methylisonicotinamido)thiophene-3-carboxylic acid], the half-inhibitory concentration (IC50) is less than 10 µM.

In the case of `CC(C(=O)Nc1scc(-c2ccc(Br)cc2)c1C(=O)O)C(C)c1ccccc1` (stereo not shown) [4-(4-bromophenyl)-2-(2-methyl-3-phenylbutanamido)thiophene-3-carboxylic acid], the IC50 is less than 10 µM.

With `CC(Cc1ccccc1)C(=O)Nc1scc(-c2ccc(Br)cc2)c1C(=O)O` (stereo not shown) [4-(4-bromophenyl)-2-(2-methyl-3-phenylpropanamido)thiophene-3-carboxylic acid], the IC50 is less than 10 µM.

Regarding `O=C(CC(c1ccccc1)c1ccccc1)Nc1scc(-c2ccc(Br)cc2)c1C(=O)O` [4-(4-bromophenyl)-2-(3,3-diphenylpropanamido)thiophene-3-carboxylic acid], the concentration for half-maximal inhibition (IC50) is less than 10 µM.
